Reference: paper PMC11882969 (Nature Communications, 2025)
Several values for one entry are separate records, joined by “and”; a condition that tells them apart may be missing. Equal values may be shown once.

Assays:
Assay type in all cases: cell-based
[1] = target: panel of 320 non-olfactory GPCRs (Homo sapiens, UniProt O00398)
[2] = target: panel of 320 non-olfactory GPCRs (Homo sapiens, UniProt O14626)
[3] = target: panel of 320 non-olfactory GPCRs (Homo sapiens, UniProt O14842)
[4] = target: panel of 320 non-olfactory GPCRs (Homo sapiens, UniProt O95665)
[5] = target: panel of 320 non-olfactory GPCRs (Homo sapiens, UniProt P18825)
[6] = target: panel of 320 non-olfactory GPCRs (Homo sapiens, UniProt P22888)
Chain of panel of 320 non-olfactory GPCRs (Homo sapiens, UniProt P22888) (P22888 27-699): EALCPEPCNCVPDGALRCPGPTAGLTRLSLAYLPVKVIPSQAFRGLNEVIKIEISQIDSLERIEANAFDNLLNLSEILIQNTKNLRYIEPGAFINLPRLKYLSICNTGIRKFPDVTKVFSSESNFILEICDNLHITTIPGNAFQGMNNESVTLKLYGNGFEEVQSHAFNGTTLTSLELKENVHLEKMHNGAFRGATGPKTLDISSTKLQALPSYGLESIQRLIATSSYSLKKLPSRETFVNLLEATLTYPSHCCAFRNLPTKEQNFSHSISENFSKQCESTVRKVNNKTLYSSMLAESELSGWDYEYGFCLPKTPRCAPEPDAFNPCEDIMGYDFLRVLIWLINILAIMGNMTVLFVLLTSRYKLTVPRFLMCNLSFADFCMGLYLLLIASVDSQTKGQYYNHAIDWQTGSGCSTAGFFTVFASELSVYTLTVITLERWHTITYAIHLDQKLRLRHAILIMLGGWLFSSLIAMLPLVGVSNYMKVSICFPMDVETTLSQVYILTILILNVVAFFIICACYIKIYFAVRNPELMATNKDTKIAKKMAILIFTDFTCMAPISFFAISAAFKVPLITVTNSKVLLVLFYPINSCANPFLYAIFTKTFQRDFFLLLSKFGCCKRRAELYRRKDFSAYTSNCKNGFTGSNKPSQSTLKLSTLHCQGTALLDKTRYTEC

[7] = target: panel of 320 non-olfactory GPCRs (Homo sapiens, UniProt P32238)
[8] = target: panel of 320 non-olfactory GPCRs (Homo sapiens, UniProt P34998)
[9] = target: panel of 320 non-olfactory GPCRs (Homo sapiens, UniProt P41180)
[10] = target: panel of 320 non-olfactory GPCRs (Homo sapiens, UniProt P41587)
[11] = target: panel of 320 non-olfactory GPCRs (Homo sapiens, UniProt P50391)
[12] = target: panel of 320 non-olfactory GPCRs (Homo sapiens, UniProt P50406)
Chain of panel of 320 non-olfactory GPCRs (Homo sapiens, UniProt P50406) (P50406 whole entry): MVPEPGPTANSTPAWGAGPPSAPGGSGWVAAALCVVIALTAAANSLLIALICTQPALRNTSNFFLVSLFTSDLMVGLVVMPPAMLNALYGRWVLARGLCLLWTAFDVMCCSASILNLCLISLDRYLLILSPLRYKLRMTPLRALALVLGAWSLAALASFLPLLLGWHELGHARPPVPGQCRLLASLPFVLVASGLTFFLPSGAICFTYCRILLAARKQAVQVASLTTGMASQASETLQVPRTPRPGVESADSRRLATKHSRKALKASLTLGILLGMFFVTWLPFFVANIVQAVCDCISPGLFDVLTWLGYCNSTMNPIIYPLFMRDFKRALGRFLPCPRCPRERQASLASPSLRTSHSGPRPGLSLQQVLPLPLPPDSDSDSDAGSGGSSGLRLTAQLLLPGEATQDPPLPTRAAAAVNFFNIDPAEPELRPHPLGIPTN

[13] = target: panel of 320 non-olfactory GPCRs (Homo sapiens, UniProt P60893)
Chain of panel of 320 non-olfactory GPCRs (Homo sapiens, UniProt P60893) (P60893 whole entry): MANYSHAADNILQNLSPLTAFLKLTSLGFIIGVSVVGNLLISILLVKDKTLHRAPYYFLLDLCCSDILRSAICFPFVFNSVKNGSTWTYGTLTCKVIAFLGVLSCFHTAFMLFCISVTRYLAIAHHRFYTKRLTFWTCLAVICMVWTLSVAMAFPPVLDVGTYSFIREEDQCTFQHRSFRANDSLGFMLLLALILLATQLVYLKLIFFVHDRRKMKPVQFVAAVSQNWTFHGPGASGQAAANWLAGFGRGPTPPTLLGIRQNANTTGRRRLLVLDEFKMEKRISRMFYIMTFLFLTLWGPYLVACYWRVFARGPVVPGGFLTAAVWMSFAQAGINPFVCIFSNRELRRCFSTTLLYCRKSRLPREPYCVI

[14] = target: panel of 320 non-olfactory GPCRs (Homo sapiens, UniProt Q8IZF5)
Chain of panel of 320 non-olfactory GPCRs (Homo sapiens, UniProt Q8IZF5) (Q8IZF5 26-1079): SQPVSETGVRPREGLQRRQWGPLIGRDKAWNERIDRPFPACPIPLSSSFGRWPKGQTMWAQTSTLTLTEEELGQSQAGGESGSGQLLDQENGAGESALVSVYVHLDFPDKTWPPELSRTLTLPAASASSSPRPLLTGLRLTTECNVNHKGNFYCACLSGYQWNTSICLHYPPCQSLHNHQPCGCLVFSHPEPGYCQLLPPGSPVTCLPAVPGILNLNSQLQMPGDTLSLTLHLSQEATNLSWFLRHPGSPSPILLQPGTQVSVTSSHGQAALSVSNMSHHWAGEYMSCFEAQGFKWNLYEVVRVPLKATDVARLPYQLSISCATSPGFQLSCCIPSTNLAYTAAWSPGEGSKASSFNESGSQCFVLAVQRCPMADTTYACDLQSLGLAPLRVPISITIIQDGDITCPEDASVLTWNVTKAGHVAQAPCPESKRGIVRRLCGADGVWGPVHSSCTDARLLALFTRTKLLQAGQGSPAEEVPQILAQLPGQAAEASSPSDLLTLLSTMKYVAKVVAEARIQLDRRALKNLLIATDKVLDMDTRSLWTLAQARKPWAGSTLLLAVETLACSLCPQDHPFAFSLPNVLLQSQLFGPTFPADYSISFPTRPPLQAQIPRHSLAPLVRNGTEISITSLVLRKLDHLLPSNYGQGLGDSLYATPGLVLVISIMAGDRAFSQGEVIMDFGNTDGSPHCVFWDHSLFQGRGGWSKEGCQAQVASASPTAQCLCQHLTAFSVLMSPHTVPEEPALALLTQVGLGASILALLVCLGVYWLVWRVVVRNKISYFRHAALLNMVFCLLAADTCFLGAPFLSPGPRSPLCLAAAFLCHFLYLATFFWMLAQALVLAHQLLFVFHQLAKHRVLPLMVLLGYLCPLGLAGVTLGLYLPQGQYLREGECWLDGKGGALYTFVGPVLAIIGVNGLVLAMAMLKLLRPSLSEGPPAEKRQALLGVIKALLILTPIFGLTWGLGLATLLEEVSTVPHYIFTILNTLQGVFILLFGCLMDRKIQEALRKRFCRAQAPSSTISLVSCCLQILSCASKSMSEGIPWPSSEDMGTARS

[15] = target: panel of 320 non-olfactory GPCRs (Homo sapiens, UniProt Q8IZF7)
[16] = target: panel of 320 non-olfactory GPCRs (Homo sapiens, UniProt Q8TDS5)
[17] = target: panel of 320 non-olfactory GPCRs (Homo sapiens, UniProt Q96CH1)
[18] = target: panel of 320 non-olfactory GPCRs (Homo sapiens, UniProt Q96P69)
[19] = target: panel of 320 non-olfactory GPCRs (Homo sapiens, UniProt Q99500)
[20] = target: panel of 320 non-olfactory GPCRs (Homo sapiens, UniProt Q9H3N8)
[21] = target: panel of 320 non-olfactory GPCRs (Homo sapiens, UniProt Q9UPC5)
[22] = target: panel of 320 non-olfactory GPCRs (Homo sapiens, UniProt O95977)
[23] = target: panel of 320 non-olfactory GPCRs (Homo sapiens, UniProt P08908)
[24] = target: panel of 320 non-olfactory GPCRs (Homo sapiens, UniProt P21462)
[25] = target: panel of 320 non-olfactory GPCRs (Homo sapiens, UniProt P28336)
Chain of panel of 320 non-olfactory GPCRs (Homo sapiens, UniProt P28336) (P28336 whole entry): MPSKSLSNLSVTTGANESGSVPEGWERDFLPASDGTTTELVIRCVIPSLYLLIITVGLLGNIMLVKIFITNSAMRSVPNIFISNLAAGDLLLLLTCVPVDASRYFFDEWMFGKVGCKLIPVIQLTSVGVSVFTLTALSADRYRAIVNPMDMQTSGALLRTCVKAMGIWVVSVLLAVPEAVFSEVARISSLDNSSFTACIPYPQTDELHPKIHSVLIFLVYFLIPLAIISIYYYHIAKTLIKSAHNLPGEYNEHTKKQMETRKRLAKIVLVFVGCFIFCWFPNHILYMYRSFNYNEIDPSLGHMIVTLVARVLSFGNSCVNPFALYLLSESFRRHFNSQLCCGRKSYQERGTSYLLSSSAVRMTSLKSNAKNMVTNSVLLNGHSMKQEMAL

[26] = target: panel of 320 non-olfactory GPCRs (Homo sapiens, UniProt P32248)
[27] = target: panel of 320 non-olfactory GPCRs (Homo sapiens, UniProt P47211)
[28] = target: panel of 320 non-olfactory GPCRs (Homo sapiens, UniProt Q13639)
[29] = target: panel of 320 non-olfactory GPCRs (Homo sapiens, UniProt Q14831)
[30] = target: panel of 320 non-olfactory GPCRs (Homo sapiens, UniProt Q96AM1)
[31] = target: panel of 320 non-olfactory GPCRs (Homo sapiens, UniProt Q96PE1)
Chain of panel of 320 non-olfactory GPCRs (Homo sapiens, UniProt Q96PE1) (Q96PE1 34-1338): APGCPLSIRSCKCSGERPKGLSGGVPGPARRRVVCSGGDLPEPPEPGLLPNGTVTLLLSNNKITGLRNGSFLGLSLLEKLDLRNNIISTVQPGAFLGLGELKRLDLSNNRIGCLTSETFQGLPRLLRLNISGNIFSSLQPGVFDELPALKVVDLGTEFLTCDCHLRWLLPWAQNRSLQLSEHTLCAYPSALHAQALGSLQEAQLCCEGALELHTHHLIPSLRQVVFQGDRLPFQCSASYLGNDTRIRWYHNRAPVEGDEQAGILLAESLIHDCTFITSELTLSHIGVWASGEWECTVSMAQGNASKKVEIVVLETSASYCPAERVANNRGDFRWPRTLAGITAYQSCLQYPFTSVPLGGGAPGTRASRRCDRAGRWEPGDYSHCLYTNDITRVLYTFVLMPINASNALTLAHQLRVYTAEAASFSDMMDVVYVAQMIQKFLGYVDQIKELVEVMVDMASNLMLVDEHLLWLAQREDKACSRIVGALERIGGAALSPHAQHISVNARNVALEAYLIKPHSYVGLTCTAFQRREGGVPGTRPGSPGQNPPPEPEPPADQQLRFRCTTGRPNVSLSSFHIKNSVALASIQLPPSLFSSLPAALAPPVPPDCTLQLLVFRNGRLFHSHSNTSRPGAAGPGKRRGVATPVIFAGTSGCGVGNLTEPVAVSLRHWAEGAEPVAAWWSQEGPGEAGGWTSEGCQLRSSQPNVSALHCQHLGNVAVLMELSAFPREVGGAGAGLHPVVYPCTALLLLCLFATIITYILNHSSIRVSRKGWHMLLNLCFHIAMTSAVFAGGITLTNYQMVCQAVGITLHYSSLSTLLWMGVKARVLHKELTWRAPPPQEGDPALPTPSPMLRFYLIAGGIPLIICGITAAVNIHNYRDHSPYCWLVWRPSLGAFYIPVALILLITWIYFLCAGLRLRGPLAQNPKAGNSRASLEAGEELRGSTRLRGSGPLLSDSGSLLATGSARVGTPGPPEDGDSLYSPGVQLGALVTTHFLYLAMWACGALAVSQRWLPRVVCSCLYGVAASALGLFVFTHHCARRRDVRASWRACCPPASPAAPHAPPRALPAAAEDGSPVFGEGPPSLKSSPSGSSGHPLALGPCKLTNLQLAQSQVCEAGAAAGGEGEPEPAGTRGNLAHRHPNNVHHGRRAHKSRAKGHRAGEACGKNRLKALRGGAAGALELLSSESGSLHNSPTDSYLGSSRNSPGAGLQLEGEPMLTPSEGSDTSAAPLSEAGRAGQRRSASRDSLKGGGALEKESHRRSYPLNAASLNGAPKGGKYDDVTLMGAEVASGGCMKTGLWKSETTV

[32] = target: panel of 320 non-olfactory GPCRs (Homo sapiens, UniProt Q96RJ0)
[33] = target: panel of 320 non-olfactory GPCRs (Homo sapiens, UniProt Q9BZJ7)
Chain of panel of 320 non-olfactory GPCRs (Homo sapiens, UniProt Q9BZJ7) (Q9BZJ7 whole entry): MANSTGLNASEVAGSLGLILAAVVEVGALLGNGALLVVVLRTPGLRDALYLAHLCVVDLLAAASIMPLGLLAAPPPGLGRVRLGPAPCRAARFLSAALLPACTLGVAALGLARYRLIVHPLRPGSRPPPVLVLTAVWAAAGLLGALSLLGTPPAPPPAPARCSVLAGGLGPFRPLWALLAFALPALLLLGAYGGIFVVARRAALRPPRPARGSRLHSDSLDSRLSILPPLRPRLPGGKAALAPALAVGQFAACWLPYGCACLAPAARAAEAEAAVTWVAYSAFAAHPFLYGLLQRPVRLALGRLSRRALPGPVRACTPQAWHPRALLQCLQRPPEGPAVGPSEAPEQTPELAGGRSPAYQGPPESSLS

[34] = target: panel of 320 non-olfactory GPCRs (Homo sapiens, UniProt Q9H1C0)
[35] = target: panel of 320 non-olfactory GPCRs (Homo sapiens, UniProt Q9H228)
[36] = target: panel of 320 non-olfactory GPCRs (Homo sapiens, UniProt Q9NZH0)
[37] = target: panel of 320 non-olfactory GPCRs (Homo sapiens, UniProt Q9Y271)

Chain of panel of 320 non-olfactory GPCRs (Homo sapiens, UniProt O14842) (O14842 whole entry): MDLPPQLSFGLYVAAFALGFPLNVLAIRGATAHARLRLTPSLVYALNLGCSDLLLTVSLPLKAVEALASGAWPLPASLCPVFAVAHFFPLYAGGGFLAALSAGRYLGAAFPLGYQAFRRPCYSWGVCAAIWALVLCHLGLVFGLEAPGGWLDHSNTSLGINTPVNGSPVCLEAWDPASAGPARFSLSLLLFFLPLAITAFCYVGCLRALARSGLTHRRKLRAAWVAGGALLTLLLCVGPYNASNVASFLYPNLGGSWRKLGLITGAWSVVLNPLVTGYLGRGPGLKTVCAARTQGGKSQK

## COC(=O)[C@@](C)(NC(=O)c1cc(C)n(-c2cccc(C(F)(F)F)c2)n1)c1cccs1 [‘1350]
[1]
  Fold of Basal RLU: 1.1 and 1 and 1.2
[2]
  Fold of Basal RLU: 1.4 and 1 and 1.5 and 0.8
[3]
  Fold of Basal RLU: 1.4 and 0.7 and 1.1 and 0.8
[4]
  Fold of Basal RLU: 1.2 and 1 and 0.7 and 0.8
[5]
  Fold of Basal RLU: 0.7 and 1.2 and 0.6
[6]
  Fold of Basal RLU: 0.9 and 1 and 1.1
[7]
  Fold of Basal RLU: 1.4 and 0.9 and 1.1 and 1.7
[8]
  Fold of Basal RLU: 0.7 and 0.9
[9]
  Fold of Basal RLU: 0.4 and 0.7 and 0.8
[10]
  Fold of Basal RLU: 0.9 and 1 and 0.7 and 1.3
[11]
  Fold of Basal RLU: 1.3 and 1.4 and 1 and 0.7
[12]
  Fold of Basal RLU: 1.2 and 1 and 1.1
[13]
  Fold of Basal RLU: 1 fold and 1.9 fold and 1.2 fold
[14]
  Fold of Basal RLU: 1.3 and 0.8 and 1.2
[15]
  Fold of Basal RLU: 0.8 and 0.9 and 0.7 and 0.5
[16]
  Fold of Basal RLU: 0.4 and 0.8 and 0.5
[17]
  Fold of Basal RLU: 0.6 and 0.7 and 0.8
[18]
  Fold of Basal RLU: 0.8 and 1 and 1.1 and 1.4
[19]
  Fold of Basal RLU: 0.4 and 0.5 and 0.8
[20]
  Fold of Basal RLU: 1.6 fold and 1.4 fold and 2.4 fold and 1.5 fold
[21]
  Fold of Basal RLU: 0.7 fold and 1 fold and 1.1 fold and 1.4 fold

## Cc1cc(C(=O)NC(C)(c2ccco2)c2ccco2)nn1-c1cccc(C(F)(F)F)c1 [‘4936]
[22]
  Fold of Basal RLU: 0.7 fold and 0.5 fold
[23]
  Fold of Basal RLU: 0.8 fold and 0.7 fold and 0.6 fold
[24]
  Fold of Basal RLU: 1.8 and 2.2 and 1.2 and 1.7
[25]
  Fold of Basal RLU: 2.2 and 1.8 and 1.2 and 1.3
[26]
  Fold of Basal RLU: 0.9 and 0.7 and 0.6
[27]
  Fold of Basal RLU: 1.3 and 1 and 0.7 and 1.4
[28]
  Fold of Basal RLU: 1 fold and 1.6 fold and 0.9 fold
[29]
  Fold of Basal RLU: 0.5 and 1 and 0.9 and 0.6
[30]
  Fold of Basal RLU: 0.6 fold and 0.8 fold and 0.9 fold
[31]
  Fold of Basal RLU: 0.6 fold and 0.5 fold and 0.9 fold and 1 fold
[32]
  Fold of Basal RLU: 1 fold and 1.1 fold and 0.9 fold
[33]
  Fold of Basal RLU: 0.7 and 1.4 and 0.9
[34]
  Fold of Basal RLU: 0.7 and 0.4 and 0.6
[35]
  Fold of Basal RLU: 1.2 and 1.9 and 1.3
[36]
  Fold of Basal RLU: 0.7 and 0.6 and 0.8
[37]
  Fold of Basal RLU: 1.1 and 0.9
